Laboratory results taken from ChEMBL document CHEMBL1201861, “Genomics of Drug Sensitity in Cancer screening data, Wellcome Trust Sanger Institute”.

Tests used:
Assay in all cases: cells
LS-513 = assay type: functional, cell-based, Homo sapiens; conditions: Homo sapiens, LS-513
Description: SANGER: Inhibition of human LS-513 cell growth in a cell viability assay.

NCI-H1838 = assay type: functional, cell-based, Homo sapiens; conditions: Homo sapiens, NCI-H1838;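 note: growth inhibition of NCI-H1838 cells, determined with a cell viability readout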
Description: SANGER: Inhibition of human NCI-H1838 cell growth in a cell viability assay.

ES7 = assay type: functional, cell-based, Homo sapiens; conditions: Homo sapiens, ES7;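 note: growth inhibition of cultured human ES7 cells, read out as cell viability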
Description: SANGER: Inhibition of human ES7 cell growth in a cell viability assay.

HDLM-2 = assay type: functional, cell-based, Homo sapiens; conditions: Homo sapiens, HDLM-2;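 note: cell viability assay measuring suppression of HDLM-2 proliferation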
Description: SANGER: Inhibition of human HDLM-2 cell growth in a cell viability assay.

EW-18 = assay type: functional, cell-based, Homo sapiens; conditions: Homo sapiens, EW-18; read-out: IC50;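 note: growth inhibition of EW-18 cells, read out by a cell viability assay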
Description: SANGER: Inhibition of human EW-18 cell growth in a cell viability assay.

SW982 = assay type: functional, cell-based; conditions: Homo sapiens;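 note: growth inhibition of SW982 cells, read out with a cell viability assay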
Description: SANGER: Inhibition of human SW982 cell growth in a cell viability assay.

DU-4475 = assay type: functional, cell-based, Homo sapiens; conditions: Homo sapiens, DU-4475
Description: SANGER: Inhibition of human DU-4475 cell growth in a cell viability assay.

KLE = assay type: functional, cell-based; conditions: Homo sapiens;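 note: growth inhibition of human KLE cells, read out with a cell viability assay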
Description: SANGER: Inhibition of human KLE cell growth in a cell viability assay.

NCI-H1581 = assay type: functional, cell-based, Homo sapiens; conditions: Homo sapiens, NCI-H1581;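 note: cell growth inhibition read out by a viability assay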
Description: SANGER: Inhibition of human NCI-H1581 cell growth in a cell viability assay.

ACN = assay type: functional, cell-based, Homo sapiens; conditions: Homo sapiens, ACN;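 note: growth inhibition of the human ACN cell line, read out via cell viability testing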
Description: SANGER: Inhibition of human ACN cell growth in a cell viability assay.

IST-MEL1 = assay type: functional, cell-based, Homo sapiens; conditions: Homo sapiens, IST-MEL1;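 note: growth inhibition of the cell line, read out with a cell viability assay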
Description: SANGER: Inhibition of human IST-MEL1 cell growth in a cell viability assay.

QIMR-WIL = assay type: functional, cell-based, Homo sapiens; conditions: Homo sapiens, QIMR-WIL;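 note: growth inhibition of QIMR-WIL cells, read out with a cell viability assay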
Description: SANGER: Inhibition of human QIMR-WIL cell growth in a cell viability assay.

MPP-89 = assay type: functional, cell-based, Homo sapiens; conditions: Homo sapiens, MPP-89;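 note: growth inhibition of human MPP-89 cells, read out with a cell viability assay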
Description: SANGER: Inhibition of human MPP-89 cell growth in a cell viability assay.

MSTO-211H = assay type: functional, cell-based, Homo sapiens; conditions: Homo sapiens, MSTO-211H
Description: SANGER: Inhibition of human MSTO-211H cell growth in a cell viability assay.

U-118-MG = assay type: functional, cell-based; conditions: Homo sapiens
Description: SANGER: Inhibition of human U-118-MG cell growth in a cell viability assay.

no-10 = assay type: functional, cell-based, Homo sapiens; conditions: Homo sapiens;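 note: growth inhibition of no-10 cells, read out with a cell viability assay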
Description: SANGER: Inhibition of human no-10 cell growth in a cell viability assay.

DOHH-2 = assay type: functional, cell-based, Homo sapiens; conditions: Homo sapiens, DOHH-2;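 note: growth inhibition of human DOHH-2 cells, read out with a cell viability assay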
Description: SANGER: Inhibition of human DOHH-2 cell growth in a cell viability assay.

NCI-H1092 = assay type: functional, cell-based, Homo sapiens; conditions: Homo sapiens, NCI-H1092;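 note: cell growth inhibition measured with a cell viability assay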
Description: SANGER: Inhibition of human NCI-H1092 cell growth in a cell viability assay.

EW-11 = assay type: functional, cell-based, Homo sapiens; conditions: Homo sapiens, EW-11;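 note: growth inhibition of human EW-11 cells, measured with a cell viability assay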
Description: SANGER: Inhibition of human EW-11 cell growth in a cell viability assay.

TE-9 = assay type: functional, cell-based, Homo sapiens; conditions: Homo sapiens, TE-9;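 note: cell growth inhibition, measured with a cell viability readout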
Description: SANGER: Inhibition of human TE-9 cell growth in a cell viability assay.

no-11 = assay type: functional, cell-based, Homo sapiens; conditions: Homo sapiens;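 note: growth inhibition of human NO-11 cells, read out with a cell viability assay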
Description: SANGER: Inhibition of human no-11 cell growth in a cell viability assay.

A704 = assay type: functional, cell-based; conditions: Homo sapiens;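 note: growth inhibition of human A704 cells, read out with a cell viability assay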
Description: SANGER: Inhibition of human A704 cell growth in a cell viability assay.

SK-UT-1 = assay type: functional, cell-based, Homo sapiens; conditions: Homo sapiens, SK-UT-1;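 note: growth inhibition of SK-UT-1 cells, measured by a cell viability assay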
Description: SANGER: Inhibition of human SK-UT-1 cell growth in a cell viability assay.

BV-173 = assay type: functional, cell-based, Homo sapiens; conditions: Homo sapiens, BV-173
Description: SANGER: Inhibition of human BV-173 cell growth in a cell viability assay.

NB5 = assay type: functional, cell-based, Homo sapiens; conditions: Homo sapiens, NB5;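 note: growth inhibition of NB5 cells, read out as cell viability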
Description: SANGER: Inhibition of human NB5 cell growth in a cell viability assay.

SW872 = assay type: functional, cell-based, Homo sapiens; conditions: Homo sapiens, SW872;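 note: growth inhibition of SW872 cells, read out by a viability assay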
Description: SANGER: Inhibition of human SW872 cell growth in a cell viability assay.

BB30-HNC = assay type: functional, cell-based, Homo sapiens; conditions: Homo sapiens, BB30-HNC;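 note: growth inhibition of the cultured cell line, read out by a cell viability assay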
Description: SANGER: Inhibition of human BB30-HNC cell growth in a cell viability assay.

TE-8 = assay type: functional, cell-based, Homo sapiens; conditions: Homo sapiens, TE-8;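 note: growth inhibition of TE-8 cells, measured with a cell viability readout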
Description: SANGER: Inhibition of human TE-8 cell growth in a cell viability assay.

HT = assay type: functional, cell-based, Homo sapiens; conditions: Homo sapiens, HT
Description: SANGER: Inhibition of human HT cell growth in a cell viability assay.

A388 = assay type: functional, cell-based; conditions: Homo sapiens;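 note: growth inhibition of human A388 cells, read out with a cell viability assay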
Description: SANGER: Inhibition of human A388 cell growth in a cell viability assay.

DOK = assay type: functional, cell-based; conditions: Homo sapiens;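 note: cell viability assay read-out, values reflect inhibition of cell growth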
Description: SANGER: Inhibition of human DOK cell growth in a cell viability assay.

NCI-H226 = assay type: functional, cell-based, Homo sapiens; conditions: Homo sapiens, NCI-H226;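 note: cell viability read-out used to gauge growth inhibition of the cells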
Description: SANGER: Inhibition of human NCI-H226 cell growth in a cell viability assay.

OCI-AML2 = assay type: functional, cell-based, Homo sapiens; conditions: Homo sapiens, OCI-AML2;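 note: growth inhibition of OCI-AML2 cells, read out with a cell viability assay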
Description: SANGER: Inhibition of human OCI-AML2 cell growth in a cell viability assay.

EW-16 = assay type: functional, cell-based, Homo sapiens; conditions: Homo sapiens, EW-16;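 note: growth inhibition of human EW-16 cells, read out as cell viability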
Description: SANGER: Inhibition of human EW-16 cell growth in a cell viability assay.

MMAC-SF = assay type: functional, cell-based; conditions: Homo sapiens;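 note: growth inhibition of human MMAC-SF cells, read out with a cell viability assay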
Description: SANGER: Inhibition of human MMAC-SF cell growth in a cell viability assay.

IST-SL1 = assay type: functional, cell-based, Homo sapiens; conditions: Homo sapiens, IST-SL1;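 note: growth inhibition of human IST-SL1 cells, read out with a cell viability assay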
Description: SANGER: Inhibition of human IST-SL1 cell growth in a cell viability assay.

KY821 = assay type: functional, cell-based, Homo sapiens; conditions: Homo sapiens, KY821;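 note: growth inhibition of human KY821 cells, read out by a cell viability assay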
Description: SANGER: Inhibition of human KY821 cell growth in a cell viability assay.

NCI-H1623 = assay type: functional, cell-based; conditions: Homo sapiens;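 note: cell viability assay used as the read-out for growth inhibition of NCI-H1623 cells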
Description: SANGER: Inhibition of human NCI-H1623 cell growth in a cell viability assay.

EM-2 = assay type: functional, cell-based, Homo sapiens; conditions: Homo sapiens, EM-2;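 note: growth inhibition of EM-2 cells, read out with a cell viability assay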
Description: SANGER: Inhibition of human EM-2 cell growth in a cell viability assay.

NCI-H1770 = assay type: functional, cell-based, Homo sapiens; conditions: Homo sapiens, NCI-H1770;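 note: growth inhibition of NCI-H1770 cells determined with a viability readout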
Description: SANGER: Inhibition of human NCI-H1770 cell growth in a cell viability assay.

NCI-H1395 = assay type: functional, cell-based, Homo sapiens; conditions: Homo sapiens, NCI-H1395;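 note: cell viability assay read-out quantifying reduced proliferation of human NCI-H1395 cells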
Description: SANGER: Inhibition of human NCI-H1395 cell growth in a cell viability assay.

D-502MG = assay type: functional, cell-based, Homo sapiens; conditions: Homo sapiens, D-502MG
Description: SANGER: Inhibition of human D-502MG cell growth in a cell viability assay.

OCUB-M = assay type: functional, cell-based; conditions: Homo sapiens;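 note: growth inhibition of the cancer cell line, read out through a cell viability assay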
Description: SANGER: Inhibition of human OCUB-M cell growth in a cell viability assay.

KGN = assay type: functional, cell-based, Homo sapiens; conditions: Homo sapiens, KGN;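 note: growth inhibition of KGN cells, read out with a cell viability assay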
Description: SANGER: Inhibition of human KGN cell growth in a cell viability assay.

TE-5 = assay type: functional, cell-based, Homo sapiens; conditions: Homo sapiens, TE-5;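 note: inhibition of cell growth, read out by a cell viability assay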
Description: SANGER: Inhibition of human TE-5 cell growth in a cell viability assay.

HEL = assay type: functional, cell-based, Homo sapiens; conditions: Homo sapiens, HEL;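 note: growth inhibition of HEL cells, read out with a cell viability assay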
Description: SANGER: Inhibition of human HEL cell growth in a cell viability assay.

NCI-H69 = assay type: functional, cell-based, Homo sapiens; conditions: Homo sapiens, NCI-H69;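 note: growth inhibition of the cell line, read out with a cell viability assay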
Description: SANGER: Inhibition of human NCI-H69 cell growth in a cell viability assay.

KINGS-1 = assay type: functional, cell-based, Homo sapiens; conditions: Homo sapiens, KINGS-1;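 note: cell viability assay measuring suppression of KINGS-1 cell growth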
Description: SANGER: Inhibition of human KINGS-1 cell growth in a cell viability assay.

LAN-6 = assay type: functional, cell-based, Homo sapiens; conditions: Homo sapiens, LAN-6;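 note: growth inhibition of LAN-6 cells, determined with a cell viability assay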
Description: SANGER: Inhibition of human LAN-6 cell growth in a cell viability assay.

LC-2-ad = assay type: functional, cell-based, Homo sapiens; conditions: Homo sapiens, LC-2-ad;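 note: growth inhibition of human LC-2-ad cells, read out with a cell viability assay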
Description: SANGER: Inhibition of human LC-2-ad cell growth in a cell viability assay.

GAK = assay type: functional, cell-based, Homo sapiens; conditions: Homo sapiens, GAK;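 note: cell growth inhibition read out by a cell viability assay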
Description: SANGER: Inhibition of human GAK cell growth in a cell viability assay.

C/C(=C\c1csc(C)n1)[C@@H]1C[C@@H]2O[C@]2(C)CCC[C@H](C)[C@H](O)[C@@H](C)C(=O)C(C)(C)[C@@H](O)CC(=O)O1 [PATUPILONE]
IC50 (LS-513): > 0.032 µM
IC50 (NCI-H1838): > 0.032 µM
IC50 (ES7): 0.00587 µM
IC50 (HDLM-2): 0.0195 µM
IC50 (EW-18): 0.00263 µM
IC50 (SW982): 0.000999 µM
IC50 (DU-4475): 0.00238 µM
IC50 (KLE): > 0.032 µM
IC50 (NCI-H1581): > 0.032 µM
IC50 (ACN): 0.00107 µM
IC50 (IST-MEL1): 0.00406 µM
IC50 (QIMR-WIL): 0.00119 µM
IC50 (MPP-89): 0.00829 µM
IC50 (MSTO-211H): > 0.032 µM
IC50 (U-118-MG): 0.018 µM
IC50 (no-10): 0.00556 µM
IC50 (DOHH-2): 0.00837 µM
IC50 (NCI-H1092): > 0.032 µM
IC50 (EW-11): > 0.032 µM
IC50 (TE-9): 0.00157 µM
IC50 (no-11): > 0.032 µM
IC50 (A704): 0.0146 µM
IC50 (SK-UT-1): 0.000892 µM
IC50 (BV-173): > 0.032 µM
IC50 (NB5): 0.0106 µM
IC50 (SW872): 0.000774 µM
IC50 (BB30-HNC): 0.000201 µM
IC50 (TE-8): 0.000111 µM
IC50 (HT): 0.0205 µM
IC50 (A388): 0.00094 µM
IC50 (DOK): > 0.032 µM
IC50 (NCI-H226): > 0.032 µM
IC50 (OCI-AML2): 0.00307 µM
IC50 (EW-16): 0.00106 µM
IC50 (MMAC-SF): 0.023 µM
IC50 (IST-SL1): 0.00637 µM
IC50 (KY821): > 0.032 µM
IC50 (NCI-H1623): 0.0169 µM
IC50 (EM-2): > 0.032 µM
IC50 (NCI-H1770): 0.000907 µM
IC50 (NCI-H1395): > 0.032 µM
IC50 (D-502MG): > 0.032 µM
IC50 (OCUB-M): 0.00103 µM
IC50 (KGN): 0.000617 µM
IC50 (TE-5): 0.00304 µM
IC50 (HEL): 0.00414 µM
IC50 (NCI-H69): 0.0148 µM
IC50 (KINGS-1): > 0.032 µM
IC50 (LAN-6): > 0.032 µM
IC50 (LC-2-ad): < 0.000125 µM
IC50 (GAK): 0.0135 µM

OC[C@H](Cc1ccccc1)Nc1nc(Oc2ccc3c(c2)CCC3)nc2c1ncn2Cc1ccc(-c2ccccc2)cc1
IC50 (LS-513): > 10.2 µM
IC50 (NCI-H1838): > 10.2 µM
IC50 (ES7): > 10.2 µM
IC50 (HDLM-2): > 10.2 µM
IC50 (EW-18): > 10.2 µM
IC50 (SW982): > 10.2 µM
IC50 (DU-4475): 1.63 µM
IC50 (KLE): > 10.2 µM
IC50 (NCI-H1581): > 10.2 µM
IC50 (ACN): 6.01 µM
IC50 (IST-MEL1): > 10.2 µM
IC50 (QIMR-WIL): 6.65 µM
IC50 (MPP-89): > 10.2 µM
IC50 (MSTO-211H): > 10.2 µM
IC50 (U-118-MG): > 10.2 µM
IC50 (no-10): > 10.2 µM
IC50 (DOHH-2): > 10.2 µM
IC50 (NCI-H1092): > 10.2 µM
IC50 (EW-11): > 10.2 µM
IC50 (TE-9): > 10.2 µM
IC50 (no-11): > 10.2 µM
IC50 (A704): > 10.2 µM
IC50 (SK-UT-1): > 10.2 µM
IC50 (BV-173): > 10.2 µM
IC50 (NB5): > 10.2 µM
IC50 (SW872): 10.2 µM
IC50 (BB30-HNC): 3.92 µM
IC50 (TE-8): 3.17 µM
IC50 (HT): > 10.2 µM
IC50 (A388): > 10.2 µM
IC50 (DOK): > 10.2 µM
IC50 (NCI-H226): > 10.2 µM
IC50 (OCI-AML2): 5.77 µM
IC50 (EW-16): 8.29 µM
IC50 (MMAC-SF): > 10.2 µM
IC50 (IST-SL1): > 10.2 µM
IC50 (KY821): > 10.2 µM
IC50 (NCI-H1623): > 10.2 µM
IC50 (EM-2): > 10.2 µM
IC50 (NCI-H1770): 8.9 µM
IC50 (NCI-H1395): > 10.2 µM
IC50 (D-502MG): > 10.2 µM
IC50 (OCUB-M): 3.68 µM
IC50 (KGN): > 10.2 µM
IC50 (TE-5): > 10.2 µM
IC50 (HEL): 3.28 µM
IC50 (NCI-H69): > 10.2 µM
IC50 (KINGS-1): > 10.2 µM
IC50 (LAN-6): > 10.2 µM
IC50 (LC-2-ad): 8.53 µM
IC50 (GAK): > 10.2 µM
